Experiment: Fluorescence properties and quantum yield measurements of the BAA library
Type: physicochemical
Parameters: FWHM (full-width-at half max): unit not given here
Settings: anhydrous DMSO; for λmax ABS / λmax EM: polystyrene 96 well plate; for FWHM (full-width-at half max): emission; for φfl (quantum yield): relative to reference fluorophore at three concentrations
Procedure: General Instruments. Synthesized sample purification was performed with an Agilent 1260 Infinity HPLC utilizing a C18 column (150mm×21.2 mm). MS (HRMS, ESI) spectra data was collected with an Agilent 6244 TOF LC/MS with diode array detector VL+ and C18 column (4.6 mm×50 mm). Absorbance and fluorescence data were measured on a SpectraMax M5 Microplate reader. NMR spectra, ^1H and ^13C, were recorded on a Bruker ARK400 spectrometer. BAA microscopy screening in cells for organelle specificity and signal-to-background ratio was completed with an Axio Zeiss Light Microscope and 63× oil immersion objective.
Fluorescence Properties and Quantum Yield Measurements. Spectroscopic characterizations were performed in anhydrous DMSO in polystyrene 96 well plate. Analysis included the maximum absorbance wavelength, maximum fluorescence emission wavelength, full-width-at half max, and quantum yield. Quantum yields (φfl) were determined by comparing the area under the emission spectrum of the BAA compound to a reference fluorophore solution at three concentrations using equation 1, where Grad represents the gradient from the plots of integrated fluorescence intensity vs absorbance at three concentrations and q is the refractive index of the solvent. Fluorescein in 0.1 M NaOH (φfl=0.91)^3 was the reference for samples with a max absorbance up to 510 nm, where an excitation of 470 nm was used with the emission integrated between 490 to 800 nm. Rhodamine B in ethanol (φfl=0.70) was the reference for samples with a max absorbance between 511-595 nm, where an excitation of 525 nm was used with the emission integrated between 545 to 800 nm. Cresyl violet in methanol (φfl=0.54)^4 was the reference for samples with a max absorbance above 595 nm, where an excitation of 570 nm was used with the emission integrated between 590 to 800 nm.

SMILES	Stokes Shift [nm]	λmax ABS [nm]	λmax EM [nm]	FWHM (full-width-at half max)	φfl (quantum yield)
CC1=CC(/C=C/c2ccc(-c3ccc(C(F)(F)F)cn3)cc2)=[N+]2C1=Cc1ccc(/C(=C\c3ccc(-c4ccc(C(F)(F)F)cn4)cc3)CC(=O)O)n1[B-]2(F)F [BAA-23b]	8	580	588	32	0.19
COc1cc(/C=C/C2=[N+]3C(=Cc4ccc(CCC(=O)O)n4[B-]3(F)F)C(C)=C2)ccc1OCc1ccc(F)cc1 [BAA-22a]	17	585	602	49	0.39
CC1=CC(/C=C/c2ccc(Cl)c(F)c2)=[N+]2C1=Cc1ccc(CCC(=O)O)n1[B-]2(F)F [BAA-54a]	8	573	581	46	0.04
CCSc1ncc(/C=C/C2=[N+]3C(=Cc4ccc(CCC(=O)O)n4[B-]3(F)F)C(C)=C2)cn1 [BAA-20a]	8	577	585	31	0.15
COc1cc(C=CC2=[N+]3C(=Cc4ccc(CCC(=O)O)n4[B-]3(F)F)C(C)=C2)cc(OC)c1 [BAA-53a]	11	570	581	30	0.44
COc1ccc2c(/C=C(/CC(=O)O)c3ccc4n3[B-](F)(F)[N+]3=C(/C=C/c5c(Cl)ncc6cc(OC)ccc56)C=C(C)C3=C4)c(Cl)ncc2c1 [BAA-1b]	17	580	597	40	0.62
CC1=CC(C=Cc2cnn(-c3ccccc3C)c2C)=[N+]2C1=Cc1ccc(CCC(=O)O)n1[B-]2(F)F [BAA-57a]	16	574	590	45	0.75
CC1=CC(C=Cc2ccc(-c3cccnc3)cc2)=[N+]2C1=Cc1ccc(C(=Cc3ccc(-c4cccnc4)cc3)CC(=O)O)n1[B-]2(F)F [BAA-37b]	9	569	578	30	0.55
CCN(CC)c1ccc(/C=C(/CC(=O)O)c2ccc3n2[B-](F)(F)[N+]2=C(/C=C/c4ccc(N(CC)CC)cc4)C=C(C)C2=C3)cc1 [BAA-10b]	82	632	714	102	0.01
COc1cc(OC)c(/C=C/C2=[N+]3C(=Cc4ccc(CCC(=O)O)n4[B-]3(F)F)C(C)=C2)c(OC)c1 [BAA-5a]	23	592	615	47	0.83
CC1=CC(C=Cc2cnn(-c3ccccc3)c2C)=[N+]2C1=Cc1ccc(CCC(=O)O)n1[B-]2(F)F [BAA-55a]	16	576	592	35	0.75
COc1ccc(/C=C/C2=[N+]3C(=Cc4ccc(CCC(=O)O)n4[B-]3(F)F)C(C)=C2)c(OC)c1C [BAA-7a]	18	582	600	63	0.29
COc1ccc(/C=C/C2=[N+]3C(=Cc4ccc(CCC(=O)O)n4[B-]3(F)F)C(C)=C2)cc1F [BAA-13a]	10	576	586	44	0.19
CC1=CC(C=Cc2ccc(-c3ccc(F)c(F)c3)nc2)=[N+]2C1=Cc1ccc(CCC(=O)O)n1[B-]2(F)F [BAA-72a]	10	580	590	31	0.40
CC1=CC(C=Cc2ccc(N(CCC#N)CCC#N)cc2)=[N+]2C1=Cc1ccc(C(=Cc3ccc(N(CCC#N)CCC#N)cc3)CC(=O)O)n1[B-]2(F)F [BAA-75b]	55	605	660	91	0.18
COc1ccc(B(O)O)c(/C=C/C2=[N+]3C(=Cc4ccc(CCC(=O)O)n4[B-]3(F)F)C(C)=C2)c1 [BAA-9a]	10	569	579	32	0.35
CC1=CC(C=Cc2ccc(-c3cccs3)s2)=[N+]2C1=Cc1ccc(C(=Cc3ccc(-c4cccs4)s3)CC(=O)O)n1[B-]2(F)F [BAA-60b]	16	588	604	37	0.47
CC1=CC(C=Cc2cc3ccc(C)cc3nc2Cl)=[N+]2C1=Cc1ccc(CCC(=O)O)n1[B-]2(F)F [BAA-63a]	15	592	607	39	0.43
COc1cc(C=CC2=[N+]3C(=Cc4ccc(C(=Cc5ccc(OCc6cccc(C(F)(F)F)c6)c(OC)c5)CC(=O)O)n4[B-]3(F)F)C(C)=C2)ccc1OCc1cccc(C(F)(F)F)c1 [BAA-40b]	18	583	601	45	0.26
CC1=CC(C=Cc2cccc(-c3ccc(S(C)(=O)=O)cc3)n2)=[N+]2C1=Cc1ccc(CCC(=O)O)n1[B-]2(F)F [BAA-59a]	10	571	581	30	0.53
CC1=CC(C=Cc2cc(-n3ccnc3)ccc2C)=[N+]2C1=Cc1ccc(CCC(=O)O)n1[B-]2(F)F [BAA-50a]	10	571	581	33	0.28
COc1ccc(/C=C/C2=[N+]3C(=Cc4ccc(CCC(=O)O)n4[B-]3(F)F)C(C)=C2)c2ccccc12 [BAA-8a]	29	594	623	61	0.50
CC1=CC(C=Cc2ccc(N(CCC#N)CCC#N)cc2)=[N+]2C1=Cc1ccc(CCC(=O)O)n1[B-]2(F)F [BAA-75a]	49	614	663	91	0.08
CC1=CC(C=Cc2c[nH]c3ccc(OCc4ccccc4)cc23)=[N+]2C1=Cc1ccc(CCC(=O)O)n1[B-]2(F)F [BAA-48a]	38	603	641	60	0.45
